How the values were obtained:
human recombinant ATX [1] = molecular target: T1, human recombinant ATX (Homo sapiens, UniProt Q13822); experiment: Choline oxidase assay of LPC cleavage by ATX; format: biochemical; details: LPC 16:0 300 µM, ATX 50 nM, 2 h, 37 °C, various concentrations
T1 construct: purchased Cayman Chemical
Protocol: (a) Concentration–response curves for the inhibition of ATX activity as measured by the […] of the substrate lysophosphatidylcholine (LPC) using choline oxidase and peroxidase. LPC 16:0 (final concentration: 300 µM, above its critical micellar concentration [CMC]), human recombinant ATX (final concentration: 50 nM), and various concentrations of cPA analogues were used for incubation with 4-aminoantipyrine, TOOS (final concentration: 0.05% (w/v) each), choline oxidase and peroxidase (final concentration: 10 U/mL each) in the ATX assay buffer. […] Inhibition was calculated as percentage (%) of reduction in absorbance compared with absorbance in the vehicle control (without cPA analogues) after subtraction of the value measured at time 0. Data are represented as mean ± standard deviation (n = 3–4 samples). (b) Inhibition of ATX activity measured by lysophosphatidic acid (LPA 16:0) production via liquid chromatography coupled to triple quadrupole mass spectrometry (LC-QqQ). The substrate LPC 16:0 (final concentration: 300 µM) was incubated with human recombinant ATX (final concentration: 50 nM) and cPA analogues (final concentration: 10 μM) for 2 h at 37 °C. The ATX product, LPA 16:0, was quantified by LC-QqQ. Inhibition was calculated as percentage (%) of reduction in LPA production compared with LPA production in the vehicle control (without cPA analogues). Data are represented as mean ± standard deviation (n = 5–6 samples).
Human recombinant ATX (50 nM final concentration, 5 µL in ATX assay buffer: 50 mM Tris, 140 mM NaCl, 5 mM KCl, 1 mM CaCl2, 1 mM MgCl2, pH 8.0) and cPA analogues (5 µL each in ATX assay buffer) at various concentrations were added in a 96-well plate and mixed with 90 µL of LPC 16:0 (final concentration: 300 µM) as substrate, 4-aminoantipyrine, TOOS (final concentration: 0.05% w/v each), choline oxidase and peroxidase (final concentration: 10 units/mL each) in ATX assay buffer. […] Inhibition was calculated as a percentage (%) of reduction in absorbance compared to absorbance in the vehicle control (without cPA analogues) after subtraction of the value measured at time 0.

human recombinant ATX [2] = molecular target: T1, human recombinant ATX; experiment: Hydrolysis of cPA analogues by ATX (LC-QqQ); format: biochemical; details: substrate 10 µM, ATX 50 nM, 37 °C, time-dependent
Protocol: Analyses of LPA from cPA, 2carbaLPA from 2ccPA, and 3carbaLPA from 3ccPA were performed using LC-QqQ as per methods described previously. cPA 18:1, or 2ccPA 18:1 and 3ccPA 18:1 mixture as substrate (10 μM each) were incubated at 37 °C for 2 h with human recombinant ATX (final concentration: 50 nM) and subjected to LC-QqQ. 2carbaLPA and 3carba LPA were both detected in the negative ion mode with selected reaction monitoring (SRM) of the transition from m/z 433.27 to m/z 151.02. To separate α-LPA and the predicted β-LPA or 2carbaLPA and 3carbaLPA, LC method was performed as per previously described protocols with some modifications. Briefly, the UHPLC PEEK Inertsil ODS-3 C18 column (3 µm, 2.1 × 150 mm; GL Sciences, Tokyo, Japan) was used and the compounds were eluted with a gradient solvent system: solvent A (5 mM ammonium formate in water containing 0.0096% formic acid, pH 4.0), solvent B (5 mM ammonium formate in 95% acetonitrile/5% water containing 1.16% formic acid, pH 4.0). The analytical procedure commenced with solvent B 55% for 10 min, followed by a linear gradient 85% for 40 min that was maintained at 85% for 15 min. […] The flow rate was 0.2 mL/min at a column temperature of 40 ℃. The injection volume was 10 µL/sample.
Supplementary Figure S4. Lysophosphatidic acid (LPA) produced from cyclic phosphatidic acid (cPA), 2-carba-lysophosphatidic acid (2carbaLPA) produced from 2-carba-cyclic phosphatidic acid (2ccPA) and 3-carba-lysophosphatidic acid (3carbaLPA) produced from 3-carba-cyclic phosphatidic acid (3ccPA) by autotaxin (ATX). (a) cPA 16:0, (b) 2ccPA or (c) 3ccPA (final concentration: 10 µM each) was incubated with or without human recombinant ATX (50 nM final concentration) at 37°C. The amount of produced (a) LPA 16:0, (b) 2carbaLPA or (c) 3carbaLPA was detected using liquid chromatography with tandem mass spectrometry (LC-QqQ) and presented as peak area (counts). Data are represented as mean ± standard deviation of experiments conducted in duplicate. […]

[3] = design: method as in PMID 32298781; details: acidic conditions ref 16; cited from earlier work
[4] = cPA analogue stability in the 293A cell medium; format: in vitro ADME; details: 10 µM, 37 °C, 293A (HEK) cell medium
Protocol: Supplementary Figure S3. Cyclic phosphatidic acid (cPA) analogue stability in the HEK cell medium. Each cPA analogue (final concentration: 10 µM) was incubated with the HEK cell medium for 1 h at 37 °C. The remaining cPA analogue was quantified using liquid chromatography with tandem mass spectrometry (LC-QqQ) and calculated based on the percentage (%) ratio of the final concentration after incubation to the initial concentration. Data are represented as mean ± standard deviation (n = 3 samples).
293A cells were prepared in Hank’s balanced salt solution (HBSS) in 96-well plates. […] After incubation for 1 h at 37 ℃, 80 µL of the supernatant was collected and mixed with 320 µL of acidic methanol, including LPA 17:0 and cPA 17:0 (final concentration: 0.2 µM each; Avanti Polar Lipids, Alabaster, AL, USA).

LPA3 = details: Ca2+ mobilization, RH7777 and CHO cells, less than 2 min incubation ref 17; cited from earlier work

CCCCCCCC/C=C\CCCCCCCC(=O)OC[C@@H]1COP(=O)(O)O1 [cPA 18:1, 1-Oleoyl-cPA]
Inhibition of lysoPLD activity of ATX (choline oxidase assay) (human recombinant ATX [1]): significantly lower inhibitory activity
Hydrolysis by ATX (human recombinant ATX [2]): hydrolyses cPA to LPA

CCCCCCCC/C=C\CCCCCCCC(=O)OCC1COP(=O)(O)C1 (centres unmarked) [2ccPA 18:1, 2-carba-cyclic phosphatidic acid]
Inhibition of lysoPLD activity of ATX (choline oxidase assay) (human recombinant ATX [1]): inhibited the lysoPLD activity of ATX in a dose-dependent manner
Hydrolysis by ATX (human recombinant ATX [2]): 2ccPA to 2carbaLPA
Degradation under acidic conditions [3]: degraded under acidic conditions

CCCCCCCC/C=C\CCCCCCCC(=O)OCC(CO)CP(=O)(O)O (centres unmarked) [2carbaLPA 18:1, 2-carba-lysophosphatidic acid]
Inhibition of lysoPLD activity of ATX (choline oxidase assay) (human recombinant ATX [1]): inhibited the lysoPLD activity of ATX in a dose-dependent manner

CCCCCCCC/C=C\CCCCCCCC(=O)OC[C@@H]1CCP(=O)(O)O1 [3ccPA 18:1, 3-carba-cyclic phosphatidic acid]
Inhibition of lysoPLD activity of ATX (choline oxidase assay) (human recombinant ATX [1]): lower inhibitory activity than the other analogues, except for LPA and cPA
Hydrolysis by ATX (human recombinant ATX [2]): hydrolysed to 3carbaLPA by ATX

CCCCCCCC/C=C\CCCCCCCC(=O)OC[C@@H](O)CCP(=O)(O)O [3carba LPA 18:1, 3-carba-lysophosphatidic acid]
Inhibition of lysoPLD activity of ATX (choline oxidase assay) (human recombinant ATX [1]): inhibited the lysoPLD activity of ATX in a dose-dependent manner
Stability during 1 h [4]: mostly stable
Activity relative to LPA (times weaker), LPA3 (LPA3): more than 10 times

Reference: publication PMC8405639, “2-Carba-lysophosphatidic acid is a novel β-lysophosphatidic acid analogue with high potential for lysophosphatidic acid receptor activation and autotaxin inhibition” (Scientific Reports, 2021)
